From patent US10947227B2, “Tricyclic heterocyclic compounds as sting activators” (Incyte Corporation, priority 2018, dated 2021) come the findings set out here.

Structures are written as SMILES.

The subject of this test is IRF3 activation in THP-1 Dual Cells. Nature of the test: IRF3 activation assay in THP-1 Dual Cells (QUANTI-Blue readout). In kind it is cell-based. The conditions noted are these: Homo sapiens, THP1-Dual, 24 h. The method, then:
THP-1 Dual Cells (Invivogen) were maintained in RPMI1640 medium with addition of 10% FBS, 100 μg/ml zeocin, 10 μg/ml blasticidin. Cells were added in a 96-well flat bottom assay plate at 100,000 per well in 100 μL complete RPMI medium. Test compounds were prepared by serial dilution in complete RPMI medium and 100 μL test compounds were transferred to each corresponding well. The assay plate was incubated at 37° C., 5% CO2 for 24 hours. After the overnight incubation, 20 μL of the culture supernatants were collected, followed by addition of 180 μL of QUANTI-Blue (Invivogen) to assess IRF3 activity. The amount of IRF3 activation was assessed by reading the absorbance at 620-655 nm with a microplate reader 2 hours later. The culture supernatant from the untreated THP-1 cells was used as the negative control. To determine the NF-κB activation, another 20 μL of culture supernatant were transferred to a 96-well white plate, followed by addition of 50 μL of Quanti-Luc™ assay solution (Invivogen). The amount of NF-κB activation induced by the test compounds were determined by the luminescence above the untreated control. EC50 determination was performed by fitting the curve of percent control activity versus the log of the compound concentration using the GraphPad Prism 6.0 software.

`CCn1nc(C)cc1C(=O)Nc1nc2cc(C(N)=O)cc(C)c2n1C/C=C/Cn1c2ccc(C(N)=O)cc2c2cnc(-c3cc(C)nn3CC)nc21` [Example 1, (E)-9-(4-(5-carbamoyl-2-(1-ethyl-3-methyl-1H-pyrazole-5-carboxamido)-7-methyl-1H-benzo[d]imidazol-1-yl)but-2-enyl)-2-(1-ethyl-3-methyl-1H-pyrazol-5-yl)-9H-pyrimido[4,5-b]indole-6-carboxamide] returned an EC50 (Table 1, 24 hours incubation) of less than 1000 nM and an EC50 (Table 2, 24 hours incubation) of 50 to 200 nM.

As to `CCn1nc(C)cc1C(=O)Nc1nc2cc(C(N)=O)cc(C)c2n1C/C=C/Cn1c2ccccc2c2cnc(-c3cc(C)nn3CC)nc21` [Example 2, (E)-1-(4-(2-(1-ethyl-3-methyl-1H-pyrazol-5-yl)-9H-pyrimido[4,5-b]indol-9-yl)but-2-enyl)-2-(1-ethyl-3-methyl-1H-pyrazole-5-carboxamido)-7-methyl-1H-benzo[d]imidazole-5-carboxamide], the EC50 was less than 1000 nM (Table 1, 24 hours incubation) and 200 to 500 nM (Table 2, 24 hours incubation).

`CCn1nc(C)cc1C(=O)Nc1nc2cc(C(N)=O)cc(C)c2n1C/C=C/Cn1c2ccc(C(N)=O)cc2c2cnc(-c3cc(C)nn3C)nc21` [Example 3, (E)-9-(4-(5-carbamoyl-2-(1-ethyl-3-methyl-1H-pyrazole-5-carboxamido)-7-methyl-1H-benzo[d]imidazol-1-yl)but-2-enyl)-2-(1,3-dimethyl-1H-pyrazol-5-yl)-9H-pyrimido[4,5-b]indole-6-carboxamide]: the EC50 (Table 1, 24 hours incubation) was less than 1000 nM.

As for `CCn1nc(C)cc1C(=O)Nc1nc2cc(C(N)=O)cc(OC)c2n1C/C=C/Cn1c2ccc(C(N)=O)cc2c2cnc(-c3cc(C)nn3CC)nc21` [Example 4, (E)-9-(4-(5-carbamoyl-2-(1-ethyl-3-methyl-1H-pyrazole-5-carboxamido)-7-methoxy-1H-benzo[d]imidazol-1-yl)but-2-enyl)-2-(1-ethyl-3-methyl-1H-pyrazol-5-yl)-9H-pyrimido[4,5-b]indole-6-carboxamide], the EC50 was less than 1000 nM (Table 1, 24 hours incubation) and 500 to 1000 nM (Table 2, 24 hours incubation).

In the case of `CCn1nc(C)cc1C(=O)Nc1nc2cc(C(N)=O)cc(C)c2n1C/C=C/Cn1c2ccc(C(N)=O)cc2c2ccc(-c3cc(C)nn3CC)nc21` [Example 5, (E)-9-(4-(5-carbamoyl-2-(1-ethyl-3-methyl-1H-pyrazole-5-carboxamido)-7-methyl-1H-benzo[d]imidazol-1-yl)but-2-en-1-yl)-2-(1-ethyl-3-methyl-1H-pyrazol-5-yl)-9H-pyrido[2,3-b]indole-6-carboxamide], the EC50 runs as follows: (Table 1, 24 hours incubation) less than 1000 nM; (Table 2, 24 hours incubation) 50 to 200 nM.

As to `CCCn1nc(C)cc1-c1ncc2c3cc(C(N)=O)ccc3n(C/C=C/Cn3c(NC(=O)c4cc(C)nn4CC)nc4cc(C(N)=O)cc(C)c43)c2n1` [Example 6, (E)-9-(4-(5-carbamoyl-2-(1-ethyl-3-methyl-1H-pyrazole-5-carboxamido)-7-methyl-1H-benzo[d]imidazol-1-yl)but-2-enyl)-2-(3-methyl-1-propyl-1H-pyrazol-5-yl)-9H-pyrimido[4,5-b]indole-6-carboxamide], the EC50 reads like this: (Table 1, 24 hours incubation) less than 200 nM; (Table 2, 24 hours incubation) less than 50 nM.

With `CCn1nc(C)cc1C(=O)Nc1nc2cc(C(N)=O)cc(C)c2n1C/C=C/Cn1c2ccc(C(N)=O)cc2c2cnc(-c3ccnn3CC)nc21` [Example 7, (E)-9-(4-(5-carbamoyl-2-(1-ethyl-3-methyl-1H-pyrazole-5-carboxamido)-7-methyl-1H-benzo[d]imidazol-1-yl)but-2-enyl)-2-(1-ethyl-1H-pyrazol-5-yl)-9H-pyrimido[4,5-b]indole-6-carboxamide], the EC50 is, setting by setting: (Table 1, 24 hours incubation) less than 1000 nM; (Table 2, 24 hours incubation) 200 to 500 nM.

As for `CCc1nn(C)cc1-c1ncc2c3cc(C(N)=O)ccc3n(C/C=C/Cn3c(NC(=O)c4cc(C)nn4CC)nc4cc(C(N)=O)cc(C)c43)c2n1` [Example 8, (E)-9-(4-(5-carbamoyl-2-(1-ethyl-3-methyl-1H-pyrazole-5-carboxamido)-7-methyl-1H-benzo[d]imidazol-1-yl)but-2-enyl)-2-(3-ethyl-1-methyl-1H-pyrazol-4-yl)-9H-pyrimido[4,5-b]indole-6-carboxamide], the EC50 runs as follows: (Table 1, 24 hours incubation) less than 1000 nM; (Table 2, 24 hours incubation) 500 to 1000 nM.

The compound `CCn1nc(C)cc1C(=O)Nc1nc2cc(C(N)=O)cc(C)c2n1C/C=C/Cn1c2ccc(C(N)=O)cc2c2cnc(-c3cc(C(F)(F)F)nn3CC)nc21` [Example 9, (E)-9-(4-(5-carbamoyl-2-(1-ethyl-3-methyl-1H-pyrazole-5-carboxamido)-7-methyl-1H-benzo[d]imidazol-1-yl)but-2-enyl)-2-(1-ethyl-3-(trifluoromethyl)-1H-pyrazol-5-yl)-9H-pyrimido[4,5-b]indole-6-carboxamide] showed an EC50 (Table 1, 24 hours incubation) of less than 1000 nM and an EC50 (Table 2, 24 hours incubation) of 200 to 500 nM.

`CCn1nc(C)cc1C(=O)Nc1nc2cc(C(N)=O)cc(C)c2n1C/C=C/Cn1c2nc(-c3cc(C)nn3CC)ncc2c2cc(C(N)=O)cc(OC)c21` [Example 10, (E)-9-(4-(5-carbamoyl-2-(1-ethyl-3-methyl-1H-pyrazole-5-carboxamido)-7-methyl-1H-benzo[d]imidazol-1-yl)but-2-enyl)-2-(1-ethyl-3-methyl-1H-pyrazol-5-yl)-8-methoxy-9H-pyrimido[4,5-b]indole-6-carboxamide]: the EC50 (Table 1, 24 hours incubation) was less than 200 nM and the EC50 (Table 2, 24 hours incubation) is less than 50 nM.

In the case of `CCn1nc(C)cc1C(=O)Nc1nc2cc(C(N)=O)cc(C)c2n1C/C=C/Cn1c2nc(-c3cc(C)nn3CC)ncc2c2cc(C(N)=O)cc(OCCCN3CCOCC3)c21` [Example 11, (E)-9-(4-(5-carbamoyl-2-(1-ethyl-3-methyl-1H-pyrazole-5-carboxamido)-7-methyl-1H-benzo[d]imidazol-1-yl)but-2-enyl)-2-(1-ethyl-3-methyl-1H-pyrazol-5-yl)-8-(3-morpholinopropoxy)-9H-pyrimido[4,5-b]indole-6-carboxamide], the EC50 is less than 200 nM (Table 1, 24 hours incubation) and less than 50 nM (Table 2, 24 hours incubation).

As to `CCn1nc(C)cc1C(=O)Nc1nc2cc(C(N)=O)cc(C)c2n1C/C=C/Cn1c2nc(-c3cc(C)nn3CC)ncc2c2cc(C(N)=O)cc(OCCCOC)c21` [Example 12, (E)-9-(4-(5-carbamoyl-2-(1-ethyl-3-methyl-1H-pyrazole-5-carboxamido)-7-methyl-1H-benzo[d]imidazol-1-yl)but-2-enyl)-2-(1-ethyl-3-methyl-1H-pyrazol-5-yl)-8-(3-methoxypropoxy)-9H-pyrimido[4,5-b]indole-6-carboxamide], the EC50 is less than 200 nM (Table 1, 24 hours incubation) and less than 50 nM (Table 2, 24 hours incubation).

As for `CCn1nc(C)cc1C(=O)Nc1nc2cc(C(N)=O)cc(C)c2n1C/C=C/Cn1c2nc(-c3cc(C)nn3CC)ncc2c2cc(C(N)=O)cc(OCCCO)c21` [Example 13, (E)-9-(4-(5-carbamoyl-2-(1-ethyl-3-methyl-1H-pyrazole-5-carboxamido)-7-methyl-1H-benzo[d]imidazol-1-yl)but-2-enyl)-2-(1-ethyl-3-methyl-1H-pyrazol-5-yl)-8-(3-hydroxypropoxy)-9H-pyrimido[4,5-b]indole-6-carboxamide], the EC50 reads like this: (Table 1, 24 hours incubation) less than 200 nM; (Table 2, 24 hours incubation) less than 50 nM.

As for `CCn1nc(C)cc1C(=O)Nc1nc2cc(C(N)=O)cc(C)c2n1C/C=C/Cn1c2nc(-c3cc(C)nn3CC)ccc2c2cc(C(N)=O)cc(OC)c21` [Example 14, (E)-9-(4-(5-carbamoyl-2-(1-ethyl-3-methyl-1H-pyrazole-5-carboxamido)-7-methyl-1H-benzo[d]imidazol-1-yl)but-2-enyl)-2-(1-ethyl-3-methyl-1H-pyrazol-5-yl)-8-methoxy-9H-pyrido[2,3-b]indole-6-carboxamide], the EC50 is less than 200 nM (Table 1, 24 hours incubation) and less than 50 nM (Table 2, 24 hours incubation).

Consider `CCn1nc(C)cc1C(=O)Nc1nc2cc(C(N)=O)cc(OCCCOC(=O)c3cc(C)nn3CC)c2n1C/C=C/Cn1c2nc(-c3cc(C)nn3CC)ncc2c2cc(C(N)=O)cc(OC)c21` [Example 15, (E)-3-((5-carbamoyl-1-(4-(6-carbamoyl-2-(1-ethyl-3-methyl-1H-pyrazol-5-yl)-8-methoxy-9H-pyrimido[4,5-b]indol-9-yl)but-2-en-1-yl)-2-(1-ethyl-3-methyl-1H-pyrazole-5-carboxamido)-1H-benzo[d]imidazol-7-yl)oxy)propyl 1-ethyl-3-methyl-1H-pyrazole-5-carboxylate], for which the EC50 is less than 200 nM (Table 1, 24 hours incubation) and less than 50 nM (Table 2, 24 hours incubation).

Consider `CCn1nc(C)cc1C(=O)Nc1nc2cc(C(N)=O)cc(OCCCO)c2n1C/C=C/Cn1c2nc(-c3cc(C)nn3CC)ncc2c2cc(C(N)=O)cc(OC)c21` [Example 16, (E)-9-(4-(5-carbamoyl-2-(1-ethyl-3-methyl-1H-pyrazole-5-carboxamido)-7-(3-hydroxypropoxy)-1H-benzo[d]imidazol-1-yl)but-2-en-1-yl)-2-(1-ethyl-3-methyl-1H-pyrazol-5-yl)-8-methoxy-9H-pyrimido[4,5-b]indole-6-carboxamide], for which the EC50 is less than 200 nM (Table 1, 24 hours incubation) and less than 50 nM (Table 2, 24 hours incubation).

`CCn1nc(C)cc1C(=O)Nc1nc2cc(C(N)=O)cc(OCCCOC(=O)c3cc(C)nn3CC)c2n1C/C=C/Cn1c2ccc(C(N)=O)cc2c2cnc(-c3cc(C)nn3CC)nc21` [Example 17, (E)-3-((5-carbamoyl-1-(4-(6-carbamoyl-2-(1-ethyl-3-methyl-1H-pyrazol-5-yl)-9H-pyrimido[4,5-b]indol-9-yl)but-2-en-1-yl)-2-(1-ethyl-3-methyl-1H-pyrazole-5-carboxamido)-1H-benzo[d]imidazol-7-yl)oxy)propyl 1-ethyl-3-methyl-1H-pyrazole-5-carboxylate]: the EC50 by setting is: (Table 1, 24 hours incubation) less than 200 nM; (Table 2, 24 hours incubation) less than 50 nM.
